Results on two compounds are retold here after US9125857B2, “Method for producing a drug extract that contains hydroxystilbene” (priority 2005, dated 2015).

The nature of data set [1]: Dissolving tests with ERr 731 dry extract in ethanol and glycerol. It is filed as physicochemical. As to conditions: for dissolved proportion, % of theory, Test B / content found in solution, Test B: 200 mg of dry extract in 50 ml of ethanol 30% R; for content found in solution, Test B / content found in solution, Test C / content found in solution, Test D / content found in solution, Test A: extract content 61.9% rhaponticin, 29.9% deoxyrhaponticin; for dissolved proportion, % of theory, Test C / content found in solution, Test C: 200 mg of dry extract in 50 ml of ethanol 50% R; for dissolved proportion, % of theory, Test D / content found in solution, Test D: 200 mg of dry extract in 50 ml of ethanol 86% R; for dissolved proportion, % of theory, Test A / content found in solution, Test A: 200 mg of dry extract in 50 ml of glycerol R. The method, then: Determination of Stilbenes by High-Pressure Liquid Chromatography (HPLC) in the Dry Extract from Rhapontic Rhubarb Root
50 mg of extract, mixed with 40 ml of a mixture of acetone and water (1:1) in an amber glass vessel, treated in an ultrasonic bath for 15 minutes and made up to 50 ml with the solvent mixture and then diluted 1:10 with the solvent mixture.
A high-pressure liquid chromatography (HPLC) is carried out on a portion of the solution obtained above, with the following system parameters:
For a quantitative determination, the respective peak areas are found and compared with the corresponding peak areas of a standard extract of known composition.
a) Dissolving Tests with ERr 731® in Ethanol and Glycerol:
Content of the extract: • 61.9% rhaponticin • 29.9% deoxyrphaponticin

Data set [2] is described as follows: pH-dependent solubility of rhaponticin in aqueous solutions. It is filed as physicochemical. An excerpt:
Use is made of this for its isolation. Since, besides other organic acids, the root in particular has a high content of oxalic acid (⅔ in water-soluble and ⅓ in bound form), this must be neutralized during the isolation in order to prevent the pH drifting into the acidic range and thus to inhibit premature precipitation of the rhaponticin. This is achieved by using calcium oxide. The latter is employed as quicklime solution with a pH of 12.4-12.6.

Consider `COc1ccc(C=Cc2cc(O)cc(O[C@@H]3O[C@H](CO)[C@@H](O)[C@H](O)[C@H]3O)c2)cc1O` [rhaponticin, 3,3′,5-Trihydroxy-4′-methoxystilbene-3-O-β-D-glucopyranoside], for which, in data set [1], the “dissolved proportion, % of theory, Test B” value is listed as “(84.3% of theory)”; the “content found in solution, Test B” value turned out to be 52.2% rhaponticin; the “dissolved proportion, % of theory, Test C” value is listed as “(95.0% of theory)”; the “content found in solution, Test C” value is 58.8% rhaponticin. In addition, in data set [1], the “dissolved proportion, % of theory, Test D” value is recorded as “(96.6% of theory)”; the “content found in solution, Test D” value is reported as 59.8% rhaponticin; the “dissolved proportion, % of theory, Test A” value is “(89.0% of theory)”; the “content found in solution, Test A” value turned out to be 55.1% rhaponticin. Further, the “solubility in aqueous solutions” value in data set [2] (acidic pH range (pH 3.4-3.6)) was “precipitated”. In addition, the “solubility in aqueous solutions” value in data set [2] (alkaline pH range) was “readily soluble”.

Take `COc1ccc(C=Cc2cc(O)cc(O[C@@H]3O[C@H](CO)[C@@H](O)[C@H](O)[C@H]3O)c2)cc1` [deoxyrhaponticin]: in data set [1], the “dissolved proportion, % of theory, Test B” value is listed as “(84.2% of theory)”; the “content found in solution, Test B” value was 25.2% deoxyrhaponticin; the “dissolved proportion, % of theory, Test C” value is given as “(97.0% of theory)”; the “content found in solution, Test C” value was 29.0% deoxyrhaponticin. In data set [1], the “dissolved proportion, % of theory, Test D” value is reported as “(98.7% of theory)”; the “content found in solution, Test D” value is on record as 29.5% deoxyrhaponticin; the “dissolved proportion, % of theory, Test A” value was “(90.6% of theory)”; the “content found in solution, Test A” value came to 27.1% deoxyrhaponticin.
